Data reported in ChEMBL document CHEMBL5260848, “Recent advancements in the development of bioactive pyrazoline derivatives” (Eur J Med Chem, 2020).
Values after ≈ are worked out from the molar mass of the structure shown.

Columns and labels:
[1] = species on record: Mus musculus; test: Antidepressant activity in Swiss albino mouse assessed as decrease in duration of immobility by tail suspension test relative to control; type: functional; design: scale not given: the % may be the effect or the level left
[2] = species on record: Mus musculus; test: Antidepressant activity in mouse assessed as […] by tail suspension test; type: functional
[3] = species on record: Mus musculus; test: Antidepressant activity in mouse assessed as […] by forced swimming test; type: functional
[4] = system: Mus musculus; test: Antidepressant activity in Swiss albino mouse assessed as decrease in duration of immobility at 100 mg/kg, po by forced swimming test relative to control; type: functional; design: scale not given: the % may be the effect or the level left
[5] = species on record: Mus musculus; test: Antianxiety activity in mouse assessed as increase in number of entries in different arms; type: functional
[6] = system: MCF7; test: Antitumor activity in human MCF7 cells xenografted in mouse model assessed as tumor volume measured after 12 days relative to control; type: functional; settings: time 12 day
[7] = system: MCF7; test: Cytotoxicity against human MCF7 cells; type: functional, cell-based
[8] = molecular target: Carbonic anhydrase 2 (Homo sapiens, UniProt P00918); test: Inhibition of human CA2 by UV spectrophotometric analysis
[9] = molecular target: Acetylcholinesterase (Homo sapiens, UniProt P22303)
[10] = molecular target: Carbonic anhydrase 1 (Homo sapiens, UniProt P00915); test: Inhibition of human CA1 by UV spectrophotometric analysis
[11] = system: Aspergillus fumigatus; test: Antifungal activity against Aspergillus fumigatus; type: functional
[12] = system: Escherichia coli; test: Antimicrobial activity against Escherichia coli assessed as inhibition of bacterial growth; type: functional
[13] = system: Candida albicans; test: Antifungal activity against Candida albicans assessed as fungal growth inhibition; type: functional
[14] = system: Candida albicans; test: Antifungal activity against Candida albicans assessed as zone of inhibition; type: functional
[15] = system: Staphylococcus aureus; test: Antimicrobial activity against Staphylococcus aureus assessed as inhibition of bacterial growth; type: functional
[16] = system: Proteus vulgaris; test: Antimicrobial activity against Proteus vulgaris assessed as inhibition of bacterial growth; type: functional
[17] = system: Bacillus subtilis; test: Antimicrobial activity against Bacillus subtilis; type: functional
[18] = system: Aspergillus fumigatus; test: Antifungal activity against Aspergillus fumigatus assessed as zone of inhibition; type: functional
[19] = system: Escherichia coli; test: Antibacterial activity against Escherichia coli; type: functional
[20] = system: Rhizopus arrhizus; test: Antifungal activity against Rhizopus oryzae; type: functional
[21] = system: Plasmodium falciparum; test: Antimalarial activity against chloroquine-sensitive Plasmodium falciparum 3D7; type: functional, organism-based
[22] = system: Staphylococcus aureus; test: Antibacterial activity against Staphylococcus aureus; type: functional
[23] = system: Mus musculus; test: Anticonvulsant activity in BALB/c mouse assessed as increase in survival rate at 60 mg/kg, ip by PTZ method relative to control; type: functional
[24] = system: Mycobacterium tuberculosis; test: Antimycobacterial activity against Mycobacterium tuberculosis; type: functional
[25] = system: Mycolicibacterium smegmatis; test: Antimycobacterial activity against Mycobacterium smegmatis; type: functional
[26] = system: Candida albicans; test: microbe, parasite or virus in culture
[27] = system: Staphylococcus aureus; test: microbe, parasite or virus in culture
[28] = system: UO-31; test: Cytotoxicity against human UO-31 cells by SRB method; type: functional; settings: read-out: LC50 (the source's name)
[29] = Growth inhibition of human Panel NCI-58 (58 carcinoma cell lines) cells by SRB method; type: functional
[30] = system: UO-31; test: Growth inhibition of human UO-31 cells by SRB method; type: functional
[31] = Cytotoxicity against human Panel NCI-58 (58 carcinoma cell lines) cells by SRB method; type: functional; settings: read-out: LC50 (the source's name)
[32] = system: Jurkat; test: Cytotoxicity against human Jurkat T cells; type: functional, cell-based
[33] = Cytotoxicity against human PBMC cells; type: functional, cell-based
[34] = system: ASPC1; test: Cytotoxicity against human ASPC1 cells; type: functional, cell-based

Sequence of Carbonic anhydrase 1 (P00915 whole entry): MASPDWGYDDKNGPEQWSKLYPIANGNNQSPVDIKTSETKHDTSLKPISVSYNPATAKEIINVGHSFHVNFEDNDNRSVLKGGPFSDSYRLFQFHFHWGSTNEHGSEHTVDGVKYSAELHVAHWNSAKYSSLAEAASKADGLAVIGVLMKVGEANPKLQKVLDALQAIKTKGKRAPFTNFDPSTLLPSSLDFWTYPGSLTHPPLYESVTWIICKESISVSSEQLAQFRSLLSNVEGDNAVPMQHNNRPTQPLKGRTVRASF
Sequence of Acetylcholinesterase (P22303 whole entry): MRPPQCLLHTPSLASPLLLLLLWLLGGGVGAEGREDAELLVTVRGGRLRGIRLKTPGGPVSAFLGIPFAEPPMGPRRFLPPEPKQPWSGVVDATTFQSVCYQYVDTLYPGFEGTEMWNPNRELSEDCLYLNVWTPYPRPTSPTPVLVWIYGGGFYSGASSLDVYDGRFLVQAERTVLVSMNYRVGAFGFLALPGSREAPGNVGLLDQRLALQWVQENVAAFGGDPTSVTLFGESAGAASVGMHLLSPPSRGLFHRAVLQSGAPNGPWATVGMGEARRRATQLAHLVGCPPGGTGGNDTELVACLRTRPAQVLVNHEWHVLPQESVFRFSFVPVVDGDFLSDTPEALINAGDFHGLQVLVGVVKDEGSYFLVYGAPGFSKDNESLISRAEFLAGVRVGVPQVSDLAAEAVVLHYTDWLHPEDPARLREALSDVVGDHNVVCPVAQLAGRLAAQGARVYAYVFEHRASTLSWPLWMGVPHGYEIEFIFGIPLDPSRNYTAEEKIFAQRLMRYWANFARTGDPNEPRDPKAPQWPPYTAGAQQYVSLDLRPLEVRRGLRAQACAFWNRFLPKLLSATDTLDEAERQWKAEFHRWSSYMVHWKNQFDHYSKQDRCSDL

SMILES: CN(C)CCCN1c2ccccc2CCc2ccccc21 [IMIPRAMINE]
- Activity [1]: 61.96%
- Time [2]: 29.33 s
- Time [3]: 29.33 s
- Activity [4]: 62.12%
- Activity [5]: -9.33

SMILES: CC(=O)Oc1ccc2c(c1)CC[C@@H]1[C@@H]2CC[C@]2(C)C3=NN(c4ccccc4)C(c4cccs4)C3C[C@@H]12 (stereo not given in full)
- Activity [6]: 87%
- IC50 [7]: 0.043 µM

SMILES: COc1ccc(C2CC(c3ccccc3)=NN2c2ccc(S(N)(=O)=O)cc2)cc1OC (stereo not given)
- Ki [8]: 0.0274 µM
- Ki [9]: 0.0377 µM
- Ki [10]: 0.0279 µM

SMILES: Clc1ccc(C2CC(c3cccs3)=NN2c2nc(-c3ccccc3)cs2)c(Cl)c1 (stereo not given)
- MIC [11]: 312 µg/mL (≈ 685 µM)
- MIC [12]: 9.77 µg/mL (≈ 21.4 µM)
- MIC [13]: 62.5 µg/mL (≈ 137 µM)
- inhibition zone (IZ) [14]: 23 mm
- MIC [15]: 9.77 µg/mL (≈ 21.4 µM)
- MIC [16]: 9.77 µg/mL (≈ 21.4 µM)
- MIC [17]: 9.77 µg/mL (≈ 21.4 µM)
- inhibition zone (IZ) [18]: 28 mm

SMILES: COc1cc(C2CC(c3cc4ccccc4oc3=O)=NN2c2ccccc2)cc(OC)c1OC (stereo not given)
- MIC [19]: 12.5 µg/mL (≈ 27.4 µM)
- MIC [20]: 12.5 µg/mL (≈ 27.4 µM)
- IC50 [21]: 11.6 µg/mL (≈ 25.5 µM)
- MIC [22]: 10 µg/mL (≈ 21.9 µM)

SMILES: O=C(Nc1ccc(Cl)cc1)N1N=C(c2ccc(Cl)s2)CC1c1c(Cl)cccc1Cl (stereo not given)
- survival at 60 mg/kg [23]: 100%

SMILES: Clc1ccc(-n2cc(C3CC(c4ccc(-c5ccccc5)cc4)=NN3)c(-c3cccs3)n2)cc1 (stereo not given)
- MIC [24]: 1.56 µg/mL (≈ 3.24 µM)
- MIC [25]: 7.8 µg/mL (≈ 16.2 µM)
- MIC [26]: 1.56 µg/mL (≈ 3.24 µM)
- MIC [27]: 1.56 µg/mL (≈ 3.24 µM)

SMILES: O=C(/C=C/c1ccc(C(F)(F)F)cc1)c1ccc(Nc2nc(NCCO)nc(NCCO)n2)cc1
- CC50 [28]: 19.5 µM
- GI50 [29]: 0.569 µM
- GI50 [30]: 1.5 µM
- CC50 [31]: 5.15 µM

SMILES: Cc1ccc(-c2nnc(SCC(=O)N3N=C(c4cccs4)CC3c3ccc(Cl)cc3)o2)cc1 (stereo not given)
- IC50 [32]: 90 µM
- IC50 [33]: 1000 µM
- IC50 [34]: 16.8 µM

SMILES: O=C(Nc1ccc(Cl)cc1)N1N=C(c2ccc(Br)s2)CC1c1c(Cl)cccc1Cl (stereo not given)
- survival at 60 mg/kg [23]: 95%
